Measured values: patent US20070287666A1, “Modulator of gamma-secretase” (priority 2006, published 2007)

Key:
[1] = test system: ε-secretase; assay: Cadherin processing assay; type: biochemical; settings: in words
Description: Notch and cadherin cleavage assays were performed as described previously (27, 29).
Cadherin processing assay: Assays were performed as previously described (29). Briefly, cells were resuspended in 0.5 ml/35-mm dish of hypotonic buffer (10 mM MOPS, pH 7.0, 10 mM KCl) and homogenized on ice. A post-nuclear supernatant was prepared by centrifugation at 1000×g for 15 minutes at 4° C. Crude membranes were isolated from the post-nuclear supernatant by centrifugation at 16,000×g for 40 minutes at 4° C. The membranes were then resuspended in 25 μl of assay buffer (150 mM sodium citrate, pH 6.4, 1× Complete protease inhibitor cocktail, Roche), and incubated at 37° C. for 4 hours in the presence or absence of γ-secretase inhibitor (L-685,458, 1 μM). Samples were then analyzed by immunoblotting using C32 anti-N-cadherin and C36 anti-E-cadherin antibodies (BD Transduction Laboratories).

[2] = test system: γ-secretase; assay: Aβ assay (ELISA, immunoprecipitation-western blotting) of conditioned medium from whole cells; type: cell-based, human; settings: whole cells or cell-free γ-secretase assays; in words
Description: Aβ40 and Aβ42 levels were measured by ELISA and immunoprecipitation-western blotting as described previously, with the use of 12-24-h-conditioned medium collected from native HEK-293 cells or from HEK-293 cells stably overexpressing APP (APPswedish or APPwt) (3,24). They were resuspended in Assay Buffer (10 mM KOAc, 1.5 mM MgCl2, protease inhibitors (Roche), 75 mM sodium citrate, pH 6.4) and incubated at 0° C. or 37° C. for 2 or 4 hours (24). CHAPSO-solubilized membrane fractions from above cells were subjected to cell free γ-secretase assay as described below without addition of the C100-Flag substrate. Following adjustment to RIPA buffer, Aβ were captured by immmunoprecipitation with 6E10 antibody (Signet) and immunoblotted as described previously (24). ε-stubs were detected by Western blotting with anti-APP-CT antibody (Sigma).

[3] = test system: TMP21; assay: Western blotting of target protein expression after siRNA knockdown; type: cell-based, human; settings: whole cells; in words
Description: siRNA-based knockdowns of target proteins were performed as described, in HEK-293 or blastocyst-derived cells (30). The oligonucleotide sequences are available in Supplementary Information.
siRNA-based knockdowns of target proteins were carried out as described (30). […] As negative controls, we used a mixture of four pooled scrambled siRNAs and mock transfections without siRNA. The expression level of target proteins was monitored by Western blotting with polyclonal anti-TMP21 or anti-p24a antibodies. Each of the individual oligonucleotide pairs where independently shown to suppress the relevant target protein (FIG. 8).

[4] = target: T1, γ-secretase (Homo sapiens, UniProt P49768); assay: γ-secretase reconstituted in yeast, APPC1-55/Gal4 lacZ reporter assay; type: cell-based, S. cerevisiae; design: expressed in transfected cells; host or cells: S. cerevisiae (strains PMY1 and DEY1); settings: co-expression with PS1, NCT, APH-1, PEN-2; wt or V717I APP reporter; in words
From the text: Core γ-secretase enzyme activity of the mammalian CNS was reconstituted in S. cerevisiae by co-expression of human presenilin 1 (PS1), nicastrin (NCT), APH-1 and PEN-2 in accordance with the method described by Edbauer (12), with activity measured via endoproteolytic release of a Gal4 transcriptional activator from an APPC1-55 juxtamembrane region and trans activation of a β-galactosidase reporter gene. While a starting configuration performed slightly above the baseline of cells lacking γ-secretase subunits, non-fermentable carbon sources favoring oxidative metabolism increased output up to 100-fold and allowed profiling of the system. As in mammalian cells, activity was greater with wt PS1 than wt PS2, sensitive to missense mutations of APP substrate near the Aβ42 site, and was modulated by the membrane protein TMP21.
Besides the production of Aβ-related peptide fragments identified by mass spectroscopy, enzyme activity was measured via a transcriptional reporter assay wherein endoproteolysis of a membrane-tethered APPC1-55/Gal4 fusion protein results in the release of a Gal4 transcriptional activator capable of driving a reporter gene (lacZ) with a colorimetric output. Effect of TMP21, Erv25p and Emp24p on reporter activity and PS1 processing

[5] = target: T1, γ-secretase; assay: Cell-free γ-secretase assay with immunopurified PS1 complexes and C100-Flag substrate; type: biochemical; design: PS1 complex was isolated by immunoprecipitation from CHAPSO extracted membranes; endogenous in cells; host or cells: HEK-293 (also SHSY-5Y) CHAPSO-solubilized membranes, anti-PS1 (A4) immunoprecipitate; settings: exogenous protein added to immunopurified TMP21-deficient PS1 complexes; in words
Description: Cell-free γ-secretase assays with endogenous APP were performed on microsome membranes from HEK-293 cells stably over expressing APPswedish with or without TMP21 RNAi treatments as described previously (24). ε-stubs were detected by western blotting with anti-APP-CT antibody (Sigma). Cell-free γ-secretase assay was performed as described (7, 13), with exogenous APP-C100 as the substrate was performed with recombinant APP-C100 peptides, wherein PS1 complex was isolated by immunoprecipitation from CHAPSO extracted membranes and combined with the recombinant C100 substrate and the generation of Aβ is determined by ELISA and AICD production is monitored by western blotting. More particularly, the peptides were generated from a prokaryotic expression vector encoding the C-terminal 100 amino acids (596-695) of human APP (695-residue isoform) followed by Flag and His6 sequences (C100-Flag-His6). This was generated by PCR and cloning into pQE60 (Qiagen). […] The generated Aβ was analyzed by immunoblotting or ELISA (Biosource).
Solubilized γ-secretase was prepared as described (7,13). […] Following addition of the C100-Flag substrate (˜0.5 μM) to 50 μl of the solubilized γ-secretase preparation the reaction mixture was incubated for 6 hrs at 37° C. and Aβ products detected by ELISA and Western blotting. […]

CC(C)C[C@H](NC(=O)[C@H](Cc1ccccc1)C[C@@H](O)[C@H](Cc1ccccc1)NC(=O)OC(C)(C)C)C(=O)N[C@@H](Cc1ccccc1)C(N)=O [L685,458]
ε-cleavage of E-cadherin or N-cadherin substrates (CAD/CTF1) to CAD/CTF2 [1]: specifically inhibited

p24a siRNA: p24a siRNA oligos (SEQ ID NO:12, 13) and p24a pooled oligos, Dharmacon (chain 1 AACCGGATGTCCACCATGACT; chain 2 ACAGAGCCATCAACGACAA; bought from Dharmacon, further chemistry not given here)
effect on Aβ production [2]: no effect | total cellular TMP21 levels / expression [3]: decrease

B1: TMP21: 219-amino-acid type 1 transmembrane protein, member of the p24 cargo-protein family (accession number Q9D1D4); expressed from cDNA (protein, UniProt Q9D1D4 32-219, looked up)
Transmembrane emp24 …: ISFHLPVNSRKCLREEIHKDLLVTGAYEITDQSGGAGGLRTHLKITDSAGHILYAKEDATKGKFAFTTEDYDMFEVCFESKGTGRIPDQLVILDMKHGVEAKNYEEIAKVEKLKPLEVELRRLEDLSESIVNDFAYMKKREEEMRDTNESTNTRVLYFSIFSMFCLIGLATWQVFYLRRFFKAKKLIE
lacZ reporter activity [4]: markedly reduced | effect on Aβ production [2]: no discernible effect

B2: TMP21-Flag: TMP21 tagged at the C terminus with the Flag epitope, immunopurified from HEK-293 cells (protein)
chain: ISFHLPINSRKCLREEIHKDLLVTGAYEISDQSGGAGGLRSHLKITDSAGHILYSKEDATKGKFAFTTEDYDMFEVCFESKGTGRIPDQLVILDMKHGVEAKNYEEIAKVEKLKPLEVELRRLEDLSESIVNDFAYMKKREEEMRDTNESTNTRVLYFSIFSMFCLIGLATWQVFYLRRFFKAKKLIE
modifications: left off: small tags and cut ends
Aβ production after complementation of TMP21-deficient PS1 complexes [5]: reverted to normal
